Molecules are shown by their SMILES. Active and inactive are the calls of the source. No cut-off for these calls is given here.

A short description of data set [1]: Toxicity in NSG mouse xenografted with human NCI-H1975 cells assessed as histological abnormalities in ocular region at 25 mg/kg,ip measured after 6 weeks by H and E staining based assay. Conditions: in vivo, 1008 h. Type of data set: organism-based. Background: Xenograft models place foreign cells or tissue in a host animal.
Data set [2] deals with T1, Heat shock protein HSP90 (Homo sapiens) (UniProt P07900+P08238). Put plainly: Inhibition of HSP90 in human NCI-H1975 cells assessed as downregulation of Met expression at 2 uM incubated for 24 hrs by western blot analysis. Type of data set: cell-based. In general terms: In western blotting, separated proteins are transferred to a membrane and probed.
Data set [3] is described as follows: Toxicity in NSG mouse xenografted with human NCI-H1975 cells assessed as abnormal behavior at 50 mg/kg,ip measured after 6 weeks. The data set is classed as organism-based. As to conditions: in vivo, 1008 h.
Data set [4] has as its target T1, Heat shock protein HSP90 (Homo sapiens). Briefly: Inhibition of HSP90 in human NCI-H1975 cells assessed as downregulation of Her2 expression at 2 uM incubated for 24 hrs by western blot analysis. The data set is classed as cell-based.
In data set [5] the target is Histone deacetylase 1 (Homo sapiens) (UniProt Q13547). Put plainly: Inhibition of HDAC1 in human NCI-H1975 cells assessed as increase in acetylation of Histone H3 at 2 uM incubated for 24 hrs by western blot analysis. The data set is classed as cell-based.
For data set [6], the target named is T1, Heat shock protein HSP90 (Homo sapiens). Briefly: Inhibition of HSP90 in human NCI-H1975 cells assessed as upregulation of HSP70 expression at 2 uM incubated for 24 hrs by western blot analysis. Type of data set: cell-based.
Data set [7] can be described thus: Toxicity in NSG mouse xenografted with human NCI-H1975 cells assessed as change in structure of retina at 50 mg/kg,ip measured after 6 weeks by H and E staining based assay. The data set is classed as organism-based. Conditions: in vivo, 1008 h.
Data set [8] is described as follows: Toxicity in NSG mouse xenografted with human NCI-H1975 cells assessed as change in number of retina at 25 mg/kg,ip measured after 6 weeks by H and E staining based assay. The data set is classed as organism-based. Conditions: in vivo, 1008 h.
In another data set the test system is NCI-H1975. Briefly: Antitumor activity against NSG mouse xenografted with human NCI-H1975 cells assessed as reduction on tumor growth at 25 mg/kg,ip measured after 6 weeks. Type of data set: functional, organism-based.
Data set [9] concerns the target T2, Protein deacetylase HDAC6 (Homo sapiens) (UniProt Q9UBN7).
T2 sequence (whole entry): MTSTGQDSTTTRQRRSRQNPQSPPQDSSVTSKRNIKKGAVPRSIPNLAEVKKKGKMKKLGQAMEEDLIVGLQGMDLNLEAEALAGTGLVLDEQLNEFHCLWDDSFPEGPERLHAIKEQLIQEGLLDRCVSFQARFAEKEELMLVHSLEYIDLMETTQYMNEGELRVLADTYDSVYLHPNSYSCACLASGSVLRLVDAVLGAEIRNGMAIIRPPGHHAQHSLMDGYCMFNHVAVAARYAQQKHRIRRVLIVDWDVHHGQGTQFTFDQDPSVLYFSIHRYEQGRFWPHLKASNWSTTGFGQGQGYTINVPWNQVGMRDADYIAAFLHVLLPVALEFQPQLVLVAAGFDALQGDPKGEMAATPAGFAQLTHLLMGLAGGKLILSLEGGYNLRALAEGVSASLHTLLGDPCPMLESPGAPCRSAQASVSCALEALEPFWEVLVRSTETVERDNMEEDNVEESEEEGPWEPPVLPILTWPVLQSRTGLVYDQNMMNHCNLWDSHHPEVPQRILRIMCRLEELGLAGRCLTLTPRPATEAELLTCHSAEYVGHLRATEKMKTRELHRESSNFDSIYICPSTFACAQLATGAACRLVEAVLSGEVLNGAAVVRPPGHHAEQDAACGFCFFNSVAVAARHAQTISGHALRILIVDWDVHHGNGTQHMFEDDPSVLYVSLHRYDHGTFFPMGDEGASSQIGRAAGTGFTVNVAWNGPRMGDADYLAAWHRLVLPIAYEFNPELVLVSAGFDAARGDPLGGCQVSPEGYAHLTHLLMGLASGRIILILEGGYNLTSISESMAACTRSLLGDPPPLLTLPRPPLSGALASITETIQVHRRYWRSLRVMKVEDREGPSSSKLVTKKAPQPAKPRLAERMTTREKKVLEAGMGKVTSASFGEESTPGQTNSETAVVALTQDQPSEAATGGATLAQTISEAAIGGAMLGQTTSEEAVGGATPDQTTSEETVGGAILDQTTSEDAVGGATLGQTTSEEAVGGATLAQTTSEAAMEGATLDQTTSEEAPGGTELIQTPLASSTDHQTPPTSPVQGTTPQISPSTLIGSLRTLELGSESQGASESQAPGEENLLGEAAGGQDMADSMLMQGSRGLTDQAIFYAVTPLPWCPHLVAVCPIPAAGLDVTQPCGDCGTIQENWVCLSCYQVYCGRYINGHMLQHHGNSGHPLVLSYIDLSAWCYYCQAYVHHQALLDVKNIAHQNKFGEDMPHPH
Briefly: Inhibition of HDAC6 in human NCI-H1975 cells assessed as increase in acetylation of alpha tubulin at 2 uM incubated for 24 hrs by western blot analysis. The data set is classed as cell-based.

In data set [10] the target is T1, Heat shock protein HSP90 (Homo sapiens). Briefly: Inhibition of HSP90 in human NCI-H1975 cells assessed as downregulation of Akt expression at 2 uM incubated for 24 hrs by western blot analysis. Type of data set: cell-based.
The target of a further data set is T3, Histone deacetylase 7 (Homo sapiens, UniProt Q8WUI4).
T3 sequence (Q8WUI4 whole entry): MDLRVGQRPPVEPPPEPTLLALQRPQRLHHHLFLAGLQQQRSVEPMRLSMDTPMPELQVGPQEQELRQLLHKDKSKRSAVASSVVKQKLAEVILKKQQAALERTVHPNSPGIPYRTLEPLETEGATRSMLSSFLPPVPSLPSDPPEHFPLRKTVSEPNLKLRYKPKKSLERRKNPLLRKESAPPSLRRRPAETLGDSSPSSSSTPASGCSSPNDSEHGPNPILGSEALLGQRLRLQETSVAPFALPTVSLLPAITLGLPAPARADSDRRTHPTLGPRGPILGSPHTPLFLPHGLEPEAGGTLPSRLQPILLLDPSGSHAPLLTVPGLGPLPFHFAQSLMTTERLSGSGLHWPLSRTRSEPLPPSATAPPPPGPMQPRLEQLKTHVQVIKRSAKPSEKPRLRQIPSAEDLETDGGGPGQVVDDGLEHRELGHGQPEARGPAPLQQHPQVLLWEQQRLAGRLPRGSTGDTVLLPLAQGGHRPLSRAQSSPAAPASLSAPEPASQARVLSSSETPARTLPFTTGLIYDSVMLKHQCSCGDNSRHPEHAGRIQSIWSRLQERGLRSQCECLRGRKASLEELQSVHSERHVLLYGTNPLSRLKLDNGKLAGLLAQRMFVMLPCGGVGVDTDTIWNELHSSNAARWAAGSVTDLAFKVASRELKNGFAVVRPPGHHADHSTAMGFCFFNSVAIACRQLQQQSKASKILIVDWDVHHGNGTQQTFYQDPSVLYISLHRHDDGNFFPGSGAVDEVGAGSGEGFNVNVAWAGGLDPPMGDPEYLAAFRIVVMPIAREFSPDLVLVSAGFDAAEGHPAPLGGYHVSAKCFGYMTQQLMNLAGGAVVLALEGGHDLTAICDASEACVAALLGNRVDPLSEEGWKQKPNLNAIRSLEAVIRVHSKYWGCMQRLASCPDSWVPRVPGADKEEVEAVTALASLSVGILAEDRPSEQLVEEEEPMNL
Briefly: Inhibition of HDAC7 (unknown origin) using fluorogenic substrate incubated for 30 mins by fluorescence plate reader.

Histone deacetylase 1 (Homo sapiens), sequence (Q13547 whole entry): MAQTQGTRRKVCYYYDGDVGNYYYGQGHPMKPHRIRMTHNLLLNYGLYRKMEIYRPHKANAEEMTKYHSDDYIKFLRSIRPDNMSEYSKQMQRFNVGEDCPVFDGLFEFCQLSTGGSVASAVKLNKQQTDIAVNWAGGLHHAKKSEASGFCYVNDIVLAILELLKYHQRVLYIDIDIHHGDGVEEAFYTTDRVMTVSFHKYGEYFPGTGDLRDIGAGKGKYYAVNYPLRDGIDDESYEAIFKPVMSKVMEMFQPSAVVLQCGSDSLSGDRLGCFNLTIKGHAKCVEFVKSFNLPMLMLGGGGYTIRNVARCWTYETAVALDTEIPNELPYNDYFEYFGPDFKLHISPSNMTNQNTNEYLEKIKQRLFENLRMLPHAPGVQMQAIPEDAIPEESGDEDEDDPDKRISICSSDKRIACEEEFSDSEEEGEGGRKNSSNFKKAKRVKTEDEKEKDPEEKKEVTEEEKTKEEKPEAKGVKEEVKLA

On to `CC(C)c1cc(C(=O)N(C)Cc2ccc(C(=O)NO)cc2)c(O)cc1O`, for which the Activity entry in data set [1], in [3], in data set [7] and in data set [8] was “Non-Toxic” in each case. The inhibition result in [2], in data set [4], in data set [5], in data set [6], in data set [9] and in [10] was “Active” throughout. Moreover, in the data set with NCI-H1975, the result was Active. The IC50 (usually the concentration at which inhibition is half-maximal) on Histone deacetylase 7 came out at 1690 nM.

These data come from ChEMBL document CHEMBL5113492, “Design, synthesis, and biological evalution of bifunctional inhibitors against Hsp90-HDAC6 interplay” (Eur J Med Chem, 2022).
